The results in this text go back to US20180370912A1, “COMPOUNDS AND METHODS FOR TREATING DISEASES MEDIATED BY PROTEIN DISULFIDE ISOMERASE” (Beth Israel Deaconess Medical Center, Inc., priority 2017, published 2018).

The target in test [1] is T1, PDI mutant in which the CGHC motif is mutated to AGHA (Homo sapiens, UniProt P07237, C397A/C400A/C53A/C56A).
T1 sequence (P07237 18-508 C53A/C56A/C397A/C400A): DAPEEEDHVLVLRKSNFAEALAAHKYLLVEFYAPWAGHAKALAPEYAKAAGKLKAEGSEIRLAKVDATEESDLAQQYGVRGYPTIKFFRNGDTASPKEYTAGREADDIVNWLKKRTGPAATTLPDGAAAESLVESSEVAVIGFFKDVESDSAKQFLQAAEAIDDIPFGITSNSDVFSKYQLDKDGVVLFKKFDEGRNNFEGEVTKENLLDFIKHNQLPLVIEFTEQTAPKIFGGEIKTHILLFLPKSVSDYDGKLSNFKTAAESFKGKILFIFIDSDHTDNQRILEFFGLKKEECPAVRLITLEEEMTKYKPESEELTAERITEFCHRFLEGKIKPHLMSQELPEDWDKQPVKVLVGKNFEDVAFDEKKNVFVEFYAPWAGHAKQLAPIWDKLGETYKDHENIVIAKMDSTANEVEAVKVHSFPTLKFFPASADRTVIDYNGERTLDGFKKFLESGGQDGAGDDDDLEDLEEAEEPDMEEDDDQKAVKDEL
Kind of test: Di-eosin-GSSG disulfide reductase assay, catalytically inactive mutant. It is filed as biochemical. The settings on record: FIG. 1c. The protocol:
The probe di-eosin glutathione disulfide, di-eosin-GSSG, was prepared as previously described in Raturi, A., Vacratsis, P. O., Seslija, D., Lee, L. & Mutus, B., Biochem J 391, 351-357 (2005). Reductase activity of purified thiol isomerases and PDI domains was monitored in a 96-well fluorescence plate format. PDI, AGHA-PDI, ERpS, ERp57, ERp72 and PDI domains were assayed at 50 nM in the presence or absence of the indicated small molecules, peptides or cathepsin G. The assay included 100 mM potassium phosphate (pH 7.4) containing 2 mM EDTA, 5 μM DTT and 150 nM of the di-eosin GSSG probe. The increase in fluorescence was determined for 20 minutes by excitation at 520 nm and emission at 550 nm in a Synergy Biotek 4. The reduction of 150 nM di-eosin-GSSG by 5 μM DTT in the presence or absence of mentioned small molecules, peptides or proteins served as a negative control.

For a further test, the target named is T2, human wild-type PDI (Homo sapiens, UniProt P07237).
T2 construct: FLAG; made in house; host or cells: Escherichia coli Origami B (DE3), pET-15b
As to the kind of experiment: Redox potential determination by differential cysteine alkylation and mass spectrometry. The protocol: The redox potentials of the a (Cys53-Cys56) and a′ (Cys397-Cys400) active-site dithiols/disulfides of human wild-type PDI in the absence or presence of bepristat 2b were determined by differential cysteine alkylation and mass spectrometry. Recombinant PDI (5 μM) was incubated in the absence or presence of bepristat 2b (50 μM) in argon-flushed phosphate-buffered saline containing 0.1 mM EDTA, 0.2 mM oxidized glutathione (GSSG, Sigma) and various concentrations of reduced glutathione (GSH, Sigma) for 18 h at room temperature. Microcentrifuge tubes were flushed with argon prior to sealing to prevent oxidation by ambient air during the incubation period. […]
The fraction of reduced active-site disulfide bond was measured from the relative ion abundance of peptides containing ^12C-IPA and ^13C-IPA. […] The area was calculated using the automated peak detection function built into the software. […] The results were expressed as the ratio of reduced to oxidized protein and fitted to equation 1: […]
where R is the fraction of reduced protein at equilibrium, B is the baseline fraction of the cysteine in the population that is in the reduced state and Keq is the equilibrium constant. The standard redox potential (E^0′) of the PDI active-site disulfides were calculated using the Nernst equation (equation 2): […]

T2 sequence (P07237 18-508): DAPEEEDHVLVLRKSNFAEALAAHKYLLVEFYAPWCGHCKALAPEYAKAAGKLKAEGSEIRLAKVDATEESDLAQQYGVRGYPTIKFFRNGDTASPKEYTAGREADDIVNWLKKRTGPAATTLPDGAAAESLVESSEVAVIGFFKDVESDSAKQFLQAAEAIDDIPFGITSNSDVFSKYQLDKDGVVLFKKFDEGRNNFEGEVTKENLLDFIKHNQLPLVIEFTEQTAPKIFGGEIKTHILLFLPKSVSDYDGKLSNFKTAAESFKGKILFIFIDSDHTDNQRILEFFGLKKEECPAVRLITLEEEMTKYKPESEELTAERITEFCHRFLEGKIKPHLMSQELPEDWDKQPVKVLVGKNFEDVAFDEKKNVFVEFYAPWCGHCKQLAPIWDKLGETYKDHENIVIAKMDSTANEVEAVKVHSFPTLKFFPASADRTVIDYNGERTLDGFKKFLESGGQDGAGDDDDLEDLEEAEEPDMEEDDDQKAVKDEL

As to `CCOC(=O)c1c(CNCCN(CC)CC)n(-c2ccccc2)c2cc(Br)c(O)cc12` [bepristat 2a], in test [1], the “augmentation of activity of catalytically inactive PDI (AGHA)” value is “fails to augment activity”. In addition, the “active site disulfide bond formation under equilibrium conditions” value at human wild-type PDI is “impairs active site disulfide bond formation”.
